# Laboratory results: ChEMBL document CHEMBL1240510, “Synthesis, stereochemical separation, and biological evaluation of selective inhibitors of human MAO-B: 1-(4-arylthiazol-2-yl)-2-(3-methylcyclohexylidene)hydrazines” (J Med Chem, 2010)
# Target: T1, Amine oxidase [flavin-containing] A (Homo sapiens, UniProt P21397)
# T1 sequence (P21397 whole entry): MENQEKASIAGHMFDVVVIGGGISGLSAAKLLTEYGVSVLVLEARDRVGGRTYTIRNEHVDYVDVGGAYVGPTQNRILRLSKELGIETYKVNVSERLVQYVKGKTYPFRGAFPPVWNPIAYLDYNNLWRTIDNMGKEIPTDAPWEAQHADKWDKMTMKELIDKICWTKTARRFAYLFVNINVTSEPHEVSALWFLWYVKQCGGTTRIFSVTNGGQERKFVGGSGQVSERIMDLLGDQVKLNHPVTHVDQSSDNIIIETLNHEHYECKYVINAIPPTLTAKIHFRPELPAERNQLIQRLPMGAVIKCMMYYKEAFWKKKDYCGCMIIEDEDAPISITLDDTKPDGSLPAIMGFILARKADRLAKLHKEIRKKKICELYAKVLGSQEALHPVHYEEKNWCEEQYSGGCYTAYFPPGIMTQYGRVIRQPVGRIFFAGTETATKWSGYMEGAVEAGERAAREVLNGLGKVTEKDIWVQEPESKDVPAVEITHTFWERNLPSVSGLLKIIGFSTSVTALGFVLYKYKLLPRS
# Assay: biochemical
# Format: cell-based, BTI-TN-5B1-4
row,SMILES,IC50 [µM]
1,CC1CCC/C(=N/Nc2nc(-c3ccccc3)cs2)C1 (centres undefined),37.8
2,C[C@@H]1CCC/C(=N/Nc2nc(-c3ccccc3)cs2)C1,38.6
3,CC1CCC/C(=N/Nc2nc(-c3ccc(Cl)cc3Cl)cs2)C1 (centres undefined),43.8
4,C[C@@H]1CCC/C(=N/Nc2nc(-c3ccc(Cl)cc3Cl)cs2)C1,40.6
5,CC1CCC/C(=N/Nc2nc(-c3ccc(Cl)cc3)cs2)C1 (centres undefined),23.1

# The remaining molecules from weak to strong by IC50, led by results:
row,IC50 [µM],SMILES
1,22.8,C[C@@H]1CCC/C(=N/Nc2nc(-c3ccc(Cl)cc3)cs2)C1
2,21.9,C[C@@H]1CCC/C(=N/Nc2nc(-c3ccc(C#N)cc3)cs2)C1
3,20.6,CC1CCC/C(=N/Nc2nc(-c3ccc(C#N)cc3)cs2)C1 (centres undefined)
4,4.26,COc1ccc(-c2csc(N/N=C3/CCC[C@@H](C)C3)n2)cc1
